Laboratory results reported in ChEMBL document CHEMBL1201862, “PubChem BioAssay data set” (2004).
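Dose response: 5 concentrations. Exposure: 48 h. Format: 96-well plates. Endpoint: linear interpolation; highest concentration if not reached. Abbreviation: GI50, concentration required for 50% inhibition of growth.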 The source made the active and inactive calls. Cut-off read from the data, not from the text of the source: active = GI50 up to about 1.1 µM and inactive = higher.

Columns and labels:
Assay in all cases: inhibition of tumour cell growth, NCI panel, 48 h
DMS-273 = tested on: DMS-273
RXF 631 = tested on: RXF 631
COLO 205 = tested on: COLO 205
SK-OV-3 = tested on: SK-OV-3
HOP-62 = tested on: HOP-62
A498 = tested on: A498
LXFL 529 = tested on: LXFL 529
DMS-114 = tested on: DMS-114
DLD-1 = tested on: DLD-1
MOLT-4 = tested on: MOLT-4
K562 = tested on: K562
ACHN = tested on: ACHN
HOP-18 = tested on: HOP-18
HL-60 = tested on: HL-60
U-251 = tested on: U-251
LOX IMVI = tested on: LOX IMVI
A549 = tested on: A549
SR = tested on: SR
HCT-116 = tested on: HCT-116
CCRF-CEM = tested on: CCRF-CEM
Malme-3M = tested on: Malme-3M
IGROV-1 = tested on: IGROV-1
OVCAR-5 = tested on: OVCAR-5
OVCAR-4 = tested on: OVCAR-4
CAKI-1 = tested on: CAKI-1
HCT-15 = tested on: HCT-15
NCI-H226 = tested on: NCI-H226
SK-MEL-2 = tested on: SK-MEL-2
M14 = tested on: M14
SF-295 = tested on: SF-295
SNB-19 = tested on: SNB-19
HOP-92 = tested on: HOP-92
UACC-257 = tested on: UACC-257
SN12C = tested on: SN12C
SW-620 = tested on: SW-620
HCC 2998 = tested on: HCC 2998
SNB-75 = tested on: SNB-75
SK-MEL-5 = tested on: SK-MEL-5
SF-268 = tested on: SF-268
M19-MEL = tested on: M19-MEL
OVCAR-8 = tested on: OVCAR-8
786-0 = tested on: 786-0
TK-10 = tested on: TK-10
KM-20L2 = tested on: KM-20L2
NCI-H522 = tested on: NCI-H522
SNB-78 = tested on: SNB-78
SF-539 = tested on: SF-539
NCI-H460 = tested on: NCI-H460
RPMI-8226 = tested on: RPMI-8226
RXF 393 = tested on: RXF 393
UACC-62 = tested on: UACC-62
HT-29 = tested on: HT-29
KM12 = tested on: KM12
UO-31 = tested on: UO-31
SK-MEL-28 = tested on: SK-MEL-28
OVCAR-3 = tested on: OVCAR-3
NCI-H23 = tested on: NCI-H23
EKVX = tested on: EKVX

COc1cc2noc(-c3ccccc3)c2cc1OC
GI50 (DMS-273): 39.6 µM (inactive)
GI50 (RXF 631): 20.4 µM (inactive)
GI50 (COLO 205): 55.3 µM (inactive)
GI50 (SK-OV-3): 63 µM (inactive)
GI50 (HOP-62): 22.4 µM (inactive)
GI50 (A498): 20.2 µM (inactive)
GI50 (LXFL 529): 68.4 µM (inactive)
GI50 (DMS-114): 35.9 µM (inactive)
GI50 (DLD-1): 64 µM (inactive)
GI50 (MOLT-4): 26.4 µM (inactive)
GI50 (K562): 50.6 µM (inactive)
GI50 (ACHN): 87.1 µM (inactive)
GI50 (HOP-18): > 100 µM (inactive)
GI50 (HL-60): 40.1 µM (inactive)
GI50 (U-251): 26.7 µM (inactive)
GI50 (LOX IMVI): 40.6 µM (inactive)
GI50 (A549): 54.3 µM (inactive)
GI50 (SR): 37 µM (inactive)
GI50 (HCT-116): 60.1 µM (inactive)
GI50 (CCRF-CEM): 42.5 µM (inactive)
GI50 (Malme-3M): > 100 µM (inactive)
GI50 (IGROV-1): > 100 µM (inactive)
GI50 (OVCAR-5): 29.2 µM (inactive)
GI50 (OVCAR-4): > 100 µM (inactive)
GI50 (CAKI-1): 27.4 µM (inactive)
GI50 (HCT-15): 38.7 µM
GI50 (NCI-H226): > 100 µM (inactive)
GI50 (SK-MEL-2): 75.9 µM (inactive)
GI50 (M14): 55.6 µM (inactive)
GI50 (SF-295): 19 µM (inactive)
GI50 (SNB-19): 54 µM (inactive)
GI50 (HOP-92): 44.1 µM (inactive)
GI50 (UACC-257): > 100 µM (inactive)
GI50 (SN12C): 34.8 µM (inactive)
GI50 (SW-620): 57.3 µM (inactive)
GI50 (HCC 2998): 58.1 µM (inactive)
GI50 (SNB-75): 4.59 µM (inactive)
GI50 (SK-MEL-5): 46.7 µM (inactive)
GI50 (SF-268): 54 µM (inactive)
GI50 (M19-MEL): 89.5 µM (inactive)
GI50 (OVCAR-8): 64.4 µM (inactive)
GI50 (786-0): 29.2 µM (inactive)
GI50 (TK-10): 80.9 µM (inactive)
GI50 (KM-20L2): 37.4 µM (inactive)
GI50 (NCI-H522): 36.4 µM (inactive)
GI50 (SNB-78): 73.5 µM (inactive)
GI50 (SF-539): 10.6 µM (inactive)
GI50 (NCI-H460): 42.4 µM (inactive)
GI50 (RPMI-8226): 18.7 µM (inactive)
GI50 (RXF 393): 23.8 µM (inactive)
GI50 (UACC-62): 74.3 µM (inactive)
GI50 (HT-29): 36.6 µM (inactive)
GI50 (KM12): 29 µM (inactive)
GI50 (UO-31): 34.8 µM (inactive)

CSc1ccc2c(cc1=O)[C@@H](NC(=O)c1ccc(F)cc1)CCc1cc(O)c(O)c(O)c1-2
GI50 (DMS-273): > 100 µM (inactive)
GI50 (RXF 631): > 100 µM (inactive)
GI50 (COLO 205): > 100 µM (inactive)
GI50 (SK-MEL-28): > 100 µM (inactive)
GI50 (SK-OV-3): > 100 µM (inactive)
GI50 (HOP-62): > 100 µM (inactive)
GI50 (A498): > 100 µM (inactive)
GI50 (LXFL 529): > 100 µM (inactive)
GI50 (DMS-114): > 100 µM (inactive)
GI50 (DLD-1): > 100 µM (inactive)
GI50 (MOLT-4): > 100 µM (inactive)
GI50 (K562): 64.3 µM (inactive)
GI50 (ACHN): > 100 µM (inactive)
GI50 (HOP-18): > 100 µM (inactive)
GI50 (HL-60): > 100 µM (inactive)
GI50 (U-251): > 100 µM (inactive)
GI50 (LOX IMVI): > 100 µM (inactive)
GI50 (A549): > 100 µM (inactive)
GI50 (HCT-116): > 100 µM (inactive)
GI50 (CCRF-CEM): 56 µM (inactive)
GI50 (Malme-3M): > 100 µM (inactive)
GI50 (IGROV-1): > 100 µM (inactive)
GI50 (OVCAR-5): > 100 µM (inactive)
GI50 (OVCAR-3): > 100 µM (inactive)
GI50 (OVCAR-4): > 100 µM (inactive)
GI50 (CAKI-1): > 100 µM (inactive)
GI50 (HCT-15): > 100 µM
GI50 (NCI-H226): > 100 µM (inactive)
GI50 (SK-MEL-2): > 100 µM (inactive)
GI50 (M14): > 100 µM (inactive)
GI50 (SF-295): > 100 µM (inactive)
GI50 (SNB-19): > 100 µM (inactive)
GI50 (HOP-92): 84.9 µM (inactive)
GI50 (UACC-257): > 100 µM (inactive)
GI50 (SN12C): > 100 µM (inactive)
GI50 (SW-620): > 100 µM (inactive)
GI50 (HCC 2998): > 100 µM (inactive)
GI50 (SNB-75): > 100 µM (inactive)
GI50 (NCI-H23): > 100 µM (inactive)
GI50 (SK-MEL-5): > 100 µM (inactive)
GI50 (SF-268): > 100 µM (inactive)
GI50 (M19-MEL): > 100 µM (inactive)
GI50 (OVCAR-8): > 100 µM (inactive)
GI50 (786-0): > 100 µM (inactive)
GI50 (TK-10): > 100 µM (inactive)
GI50 (KM-20L2): > 100 µM (inactive)
GI50 (NCI-H522): > 100 µM (inactive)
GI50 (SNB-78): > 100 µM (inactive)
GI50 (EKVX): > 100 µM (inactive)
GI50 (SF-539): > 100 µM (inactive)
GI50 (NCI-H460): > 100 µM (inactive)
GI50 (RPMI-8226): > 100 µM (inactive)
GI50 (RXF 393): > 100 µM (inactive)
GI50 (UACC-62): > 100 µM (inactive)
GI50 (HT-29): > 100 µM (inactive)
GI50 (KM12): > 100 µM (inactive)
GI50 (UO-31): > 100 µM (inactive)
